# Laboratory results reported in patent publication US9289505B2, “Compositions and methods for delivering nucleic acid molecules and treating cancer” (Rutgers, The State University of New Jersey, priority 2010, dated 2016).
# d = 2'-deoxy (DNA); r = 2'-OH (RNA)
# Experiments:
# [1] = tested on: A2780 human ovarian cancer cells; assay: Cellular uptake of fluorophore labeled siRNA, confocal microscopy; assay type: cell-based; details: living cells
# Procedure: Cellular uptake and intracellular localization of siRNA was investigated using a confocal microscopy. In this experiment, living cancer cells were incubated with fluorophore labeled naked siRNA (siGLO® Red, red fluorescence) and siRNA complexed with cationic nanocarrier PAMAM-PEG-PLL (N/P=3). Cellular uptake studied substances was monitored in living cells placed in a chamber at 37° C. within 1 hour. Cellular localization of siRNA was examined on fixed and washed cells after the incubation for 24 hours with the substances. Fluorescence and its distribution within the cell were examined using a confocal microscope.
# [2] = tested on: subcutaneous tumor xenografts of human A549 cancer cells; assay: Antitumor activity in subcutaneous A549 xenografts; details: intratumoral 3 times within 10 days
# Procedure: NCR nude mice (female, 6 weeks, 20 g) were purchased from Taconic Farms, Inc. (Germantown, N.Y.). […] Briefly, A549 human cancer cells transfected with luciferase (5×10^6) were subcutaneously transplanted into the flanks of female athymic nu/nu mice. According to the approved institutional animal use protocol, the tumors were measured by a caliper every other day and their volumes were calculated as d^2×D/2 where d and D are the shortest and longest diameter of the tumor in mm, respectively. When the tumor reached a mean size of 50 mm^3, mice were divided into seven groups and injected intratumorally 3 times within 10 days with 150 μL of the following formulations: (1) saline (control); (2) free non-bound LHRH; (3) free non-bound siRNA; (4) free non-bound CIS; (5) Mixture of CIS and SPIO-PPI G5; (6) Mixture of CIS and SPIO-PPI G5-siRNA; and (7) Mixture of CIS and SPIO-PPI G5-siRNA-PEG-LHRH complexes. The concentrations of CIS and siRNA in the formulations were 2.5 mg/kg and 30 μM, respectively. Changes in tumor size were monitored by real-time bioluminescence in anesthetized animals by IVIS imaging system (Xenogen Bioscience, Cranbury, N.J.).
# [3] = tested on: BCL2 mRNA; assay: BCL2 gene silencing by siRNA-dendrimer complexes, RT-PCR; assay type: cell-based, human; details: A549 cells, 24 hours incubation
# Procedure: Quantitative reverse transcription-polymerase chain reaction (RT-PCR) was used for the analysis of expression of genes encoding BCL2 protein and β2-microglobulin (internal standard) as previously described (Pakunlu et al. (2003) Pharm. Res., 20:351-359). RNA was isolated after 24 hours incubation of cancer cells with siRNA-dendrimer complexes, using an RNeasy kit (Qiagen, Valencia, Calif.). First strand complementary DNA (cDNA) was synthesized by Ready-To-Go You-Prime First-Strand Beads (Amersham Biosciences, Piscataway, N.J.) with […] of total cellular RNA and 100 ng of random hexadeoxynucleotide primer (Amersham Bioscience, Piscataway, N.J.). After synthesis, the reaction mixture was immediately subjected to PCR, which was carried out using GenAmp® PCR System 2400 (Perkin-Elmer, Shelton, Conn.). The following pairs of primers were used: BCL2-GGATTGTGGCCTTCTTTGAG (sense; SEQ ID NO: 6), CCAAACTGAGCAGAGTCTTC (antisense; SEQ ID NO: 7); β2-microglobulin (β2-m)-ACCCCCACTGAAAAAGATGA (sense; SEQ ID NO: 8), ATCTTCAAACCTCCATGATG (antisense; SEQ ID NO: 9). […] Gene expression was calculated as the ratio of mean band intensity of analyzed RT-PCR product (BCL2) to that of the internal standard (β2-m). […]
# [4] = Serum stability of siRNA and PAMAM-PEG-PLL-siRNA complex; assay type: in vitro ADME; details: 50% human serum, 37° C.
# Procedure: Serum stabilities of naked siRNA and siRNA complexed with PAMAM-PEG-PLL nanocarrier were investigated by incubating siRNA or PAMAM-PEG-PLL-siRNA complex in 50% human serum at 37° C. Ten samples were prepared by mixing siRNA (30 nmol) in water with PAMAM-PEG-PLL (74.8 nmol, N/P=3) solution in water and separately incubated for 30 minutes at room temperature. In the case of naked siRNA, equal volume of RNAase free water was used instead of nanocarrier. To each of these samples 50% human plasma was added (final siRNA concentration was 1.43 nM) and incubated at 37° C. Samples were removed at an indicated time intervals (0, 0.25, 0.5, 0.75, 1, 3, 6, 12, 24 and 50 hours) and analyzed using a gel electrophoresis (4% agarose gel at 100 V for 50 minutes) in Tris-Borate-EDTA buffer containing EtBr. siRNA bands on the gel were visualized under ultraviolet light. PAMAM-PEG-PLL-siRNA samples were pre-treated with polymethacrylic acid to release free siRNA from cationic nanocarriers. 100 μL of polymethacrylic acid solution (4 μM) was added to the complexes (triblock nanocarrier/siRNA=3) and incubated at 37° C. with 50% human plasma. The released siRNA was then analyzed by a gel electrophoresis.
# [5] = tested on: BCL2 gene; assay: BCL2 gene expression, RT-PCR; assay type: cell-based, human; details: A2780 cells, BCL2 siRNA 1 μM delivered by the named carrier, 24 hours
# Procedure: Reverse transcription-polymerase chain reaction (RT-PCR) was used for the analysis of gene expression (Pakunlu et al. (2004) Cancer Res., 64:6214-6224). […] After 24 hours, total cellular RNA was isolated using an RNeasy kit (Qiagen, Valencia, Calif.). […] After synthesis, the reaction mixture was immediately subjected to polymerase chain reaction (PCR), which was carried out using […] System 2400 (Perkin-Elmer, Shelton, Conn.). β2-microglobulin (β2-m) was used as an internal standard. The following pairs of primers were used: BCL2: [NT] (sense; SEQ ID NO: 6), [NT] (antisense; SEQ ID NO: 7); β2-m (internal […] (sense; SEQ ID NO: 8), [NT] (antisense; SEQ ID NO: 9). PCR regimen was as follows: 94° C. for 5 minutes; 94° C. for 1 minute, 55° C. for 1 minute, and 72° C. for 1 minute for 41 cycles; and 60° C. for 10 minutes. PCR products were separated in 4% NuSieve 3:1 Reliant-agarose gels (Lonza, Basel, Switzerland) in 1× Tris-borate EDTA buffer [0.089 mol/L Tris-borate, 0.002 mol/L EDTA (pH 8.3); Research Organics Inc., Cleveland, Ohio] by submarine electrophoresis. The gels were stained with EtBr and digitally photographed.
# [6] = tested on: A549 human lung cancer cells; assay: Cellular internalization of FAM-labelled siRNA; assay type: cell-based; details: 24 hours, siRNA 0.25 μM, fluorescence microscopy
# Procedure: Prior to the visualization, A549 cells were plated (20,000 cells per well) in a 6-well tissue culture plate. The cells were treated within 24 hours with the siRNA complex prepared with different generations of PPI dendrimer. The treatment of the A549 cells was performed in such a manner that the final concentration of siRNA was 0.25 μM and the concentrations of PPI G2, G3, G4, and G5 dendrimers were 3.15 μM, 1.58 μM, 0.79 μM, and 0.39 μM, respectively. After 24 hours of treatment, the cells were washed three times with Phosphate Buffered Saline (PBS) and 1 mL of media was added to each well. Cellular internalization of siRNA-dendrimer complexes were analyzed by fluorescent (Olympus America Inc., Melville, N.Y.) and confocal (Leica Microsystems Inc., Bannockburn, Ill.) microscopes. To obtain intracellular distribution of siRNA, ten optical sections, known as a z-series, were photographed sequentially, by confocal microscope, along the vertical (z) axis from the top to the bottom of the cell. The obtained fluorescent images were digitally scanned and fluorescence inside cells (reflecting intracellular accumulation of labelled siRNA) was expressed in arbitrary units.
substance,measurement,setting,value
"5′-GUGAAGUCAACAUGCCUGC-dTdT-3′ (sense strand; SEQ ID NO: 4) and 5′-GCAGGCAUGUUGACUUCAC-dTdT-3′ (antisense strand; SEQ ID NO: 5) (sense GUGAAGUCAACAUGCCUGCTT; antisense GCAGGCAUGUUGACUUCACTT; sugars from the 5' end r19 d2, backbone not given here) [naked siRNA, siRNA targeted to BCL2 mRNA without carrier; fluorophore labelled siRNA used in uptake tests]",cellular uptake of siRNA,[1],did not penetrate the cancer cells
same,tumor growth / antitumor activity,[2],did not significantly influence the growth of the tumor
same,BCL2 gene knockdown,[3],Gene silencing was not observed
same,incubation time after which siRNA started to degrade,[4],1 h
same,"expression of targeted BCL2 gene, from control value",[5],did not influenced
same,siRNA cellular internalization,[6],not internalized by the cells
